How the values were obtained:
[1] = system: human erythrocytes; test: Erythrocyte lysis assay; assay type: cell-based; settings: 37° C., 1 h, citrate pH 5 versus HBS, FIG. 5
Protocol: The assay serves the examination of the ability of peptides to lyse natural membranes in a pH-dependent manner.
The erythrocytes used in this assay were obtained as follows: 10 ml of fresh blood were taken from volunteers and diluted immediately into 10 ml of Alsever's solution (Whaley 1985; Plank et al., 1996). Aliquots of 3 ml each were washed 3 times with the corresponding buffer (40 ml each of citrate or HBS; after addition of buffer, shaking, centrifugation at 2500×g and discarding of the supernatant). The concentration of the erythrocytes was determined with an “extinction coefficient” of 2.394×10^−8 ml/cells at 541 nm. For deriving the extinction coefficient, the cell count in an aliquot was determined using a Neubauer chamber followed by measuring the absorbance of this solution at 541 nm upon addition of 1 μl 1% Triton X-100.
Aliquots of INF7 and copolymer-coupled INF7 (P3INF7), respectively, were provided in column 1 of a 96-well plate in 150 μl 10 mM sodium citrate pH 5/150 mM NaCl and in HBS buffer, respectively (usually corresponding to […] peptide). […] Then, the plates were centrifuged at 2500×g, 150 μl each of the supernatant was transferred into a flat bottom 96-well plate and released hemoglobin was determined at 410 nm using an ELISA plate reader. […] 0% lysis was determined from untreated samples in column 12.

[2] = system: complement system; test: Complement activation assay (CH50)

**Q.** GLFEAIEGFIENGWEGMIDGWYGC [INF7] was tested. Which erythrocyte lysis activity [1] did it give?
**A.** strong pH-dependent activity

**Q.** And the “complement activation when incorporated in a polylysine-DNA complex” value ([2]; FIG. 4B)?
**A.** this complement activation disappears

**Q.** And the “complement activation (CH50 as percentage of CH50max)” value ([2]; substance itself incubated with human serum, FIG. 4)?
**A.** weak activator of complement

Reference: US20090239939A1, “Combinations for introducing nucleic acids into cells” (priority 1999, published 2009)
